Assay results: patent US10772928B2, “Modulation and detection of a neuronal alternative splicing regulatory network for treatment and diagnosis of neurological disorders” (The Governing Council of the University of Toronto, priority 2014, dated 2020)

Molecular target: T1, nSR100 (Homo sapiens, UniProt A7MD48)
T1 construct: expressed in transfected cells; host or cells: 293T (human kidney cells), doxycycline-inducible nSR100 expression
T1 sequence (A7MD48 1-611): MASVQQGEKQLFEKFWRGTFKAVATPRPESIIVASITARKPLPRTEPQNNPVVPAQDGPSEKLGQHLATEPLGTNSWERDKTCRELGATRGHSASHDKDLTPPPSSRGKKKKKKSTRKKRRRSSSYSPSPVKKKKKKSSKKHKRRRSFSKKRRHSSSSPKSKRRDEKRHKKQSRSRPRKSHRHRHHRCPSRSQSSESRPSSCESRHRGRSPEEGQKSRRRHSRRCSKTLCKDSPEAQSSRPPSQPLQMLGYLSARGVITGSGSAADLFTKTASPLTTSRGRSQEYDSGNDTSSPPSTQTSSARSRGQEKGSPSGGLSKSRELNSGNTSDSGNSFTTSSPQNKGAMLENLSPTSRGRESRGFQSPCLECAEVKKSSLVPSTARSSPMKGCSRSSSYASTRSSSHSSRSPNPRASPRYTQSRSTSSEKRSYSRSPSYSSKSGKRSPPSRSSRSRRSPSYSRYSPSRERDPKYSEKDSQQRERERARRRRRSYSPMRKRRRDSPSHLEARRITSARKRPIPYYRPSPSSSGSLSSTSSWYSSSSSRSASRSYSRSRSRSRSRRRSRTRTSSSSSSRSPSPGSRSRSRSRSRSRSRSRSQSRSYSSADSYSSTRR
Test: Regulation by nSR100: microexon inclusion level (PSI) by RNA-Seq in human 293T cells overexpressing nSR100 (Table 1)
Format: cell-based
Details: YES/NO
Source text: A) Percent of neural-regulated exons within each length class that is affected by nSR100 expression in human 293T kidney cells (absolute ΔPSI>15, light grey or absolute ΔPSI>25, dark grey). p-values correspond to two-sided proportion tests of affected vs. non-affected events. B) Average normalized density of nSR100 cross-linked sites in 200 nt windows encompassing neural-regulated exons of different length classes. FPB, Fragments Per Billion. […]
An RNA-Seq analysis pipeline was developed to detect and quantify all AS event classes involving all hypothetically possible splice junctions formed by the usage of annotated and unannotated splice sites, including those that demarcate microexons. […]
A multi-module analysis pipeline was developed that uses RNA-Seq, expressed sequence tag (EST) and cDNA data, as well as gene annotations and evolutionary conservation, to assemble libraries of exon-exon-junctions (EEJs) for subsequent read alignment to detect and quantify AS events in RNA-Seq data. […] Alt3 or Alt5 events were quantified based on the fraction of reads supporting the usage of each alternative splice site. Intron retention was analyzed as recently described (Braunschweig et al., 2014). […]

With DTNB the “Regulation by nSR100” value was “YES (minimum threshold (PSI≥10) requirement for annotation as “YES”)”.
